This is an account of results in US20100197727A1, “Quinoline Derivatives as Antibacterial Agents” (priority 2005, published 2010).

Assay [1] relates to Bacillus subtilis (ATCC43639). The assay is described as follows: Microtitre plate assay, IC90 determination. The class given is cell-based. The conditions noted are these: 90% inhibitory concentration for bacterial growth. As for the experimental part: (§1) The bacteria used in this study were grown overnight in flasks containing 100 ml Mueller-Hinton Broth (Becton Dickinson—cat. no. 275730) in sterile de-ionized water, with shaking, at 37° C. Stocks (0.5 ml/tube) were stored at −70° C. until use. Bacteria titrations were performed in microtiter plates and colony forming units (CFUs) were determined In general, an inoculum level of approximately 100 CFUs was used for susceptibility testing.
(§2) Flat-bottom, sterile 96-well plastic microtiter plates were filled with 180 μl of sterile deionized water, supplemented with 0.25% BSA. Subsequently, stock solutions (7.8× final test concentration) of compounds were added in 45 μl volumes in column 2. Serial five-fold dilutions (45 μl in 180 μl ) were made directly in the microtiter plates from column 2 to reach column 11. Untreated control samples with (column 1) and without (column 12) inoculum were included in each microtiter plate. Depending on the bacteria type, approximately 10 to 60 CFU per well of bacteria inoculum (100 TCID50), in a volume of 100 μl in 2.8× Mueller-Hinton broth medium, was added to the rows A to H, except column 12. The same volume of broth medium without inoculum was added to column 12 in row A to H. The cultures were incubated at 37° C. for 24 hours under a normal atmosphere (incubator with open air valve and continuous ventilation). At the end of incubation, one day after inoculation, the bacterial growth was quantitated fluorometrically. Therefore resazurin (0.6 mg/ml) was added in a volume of 20 μl to all wells 3 hours after inoculation, and the plates were re-incubated overnight. A change in colour from blue to pink indicated the growth of bacteria. The fluorescence was read in a computer-controlled fluorometer (Cytofluor Biosearch) at an excitation wavelength of 530 nm and an emission wavelength of 590 nm. The % growth inhibition achieved by the compounds was calculated according to standard methods. The IC90 (expressed in μg/ml) was defined as the 90% inhibitory concentration for bacterial growth.

Assay [2] concerns Enterococcus faecalis (ATCC14506). The assay is described as follows: Microtitre plate assay, IC90 determination. The class given is cell-based. The conditions noted are these: 90% inhibitory concentration for bacterial growth. The protocol:
as §1, §2

The subject of assay [3] is Enterococcus faecalis (ATCC29212). The assay is described as follows: Microtitre plate assay, IC90 determination. In kind it is cell-based. The conditions noted are these: 90% inhibitory concentration for bacterial growth. As for the experimental part: as §1, §2
Assay [4] has as its system Escherichia coli (ATCC25922). The assay is described as follows: Microtitre plate assay, IC90 determination. The class given is cell-based. The following applies: 90% inhibitory concentration for bacterial growth. As for the experimental part:
as §1, §2

The test system of assay [5] is Listeria monocytogenes (ATCC49594). Nature of the assay: Microtitre plate assay, IC90 determination. In kind it is cell-based. The conditions noted are these: 90% inhibitory concentration for bacterial growth. As for the experimental part:
as §1, §2

Assay [6] has as its system Pseudomonas aeruginosa (ATCC27853). Nature of the assay: Microtitre plate assay, IC90 determination. In kind it is cell-based. The conditions noted are these: 90% inhibitory concentration for bacterial growth. The protocol: as §1, §2
In assay [7] the test system is Staphylococcus aureus (ATCC25923). The assay is described as follows: Microtitre plate assay, IC90 determination. The class given is cell-based. The following applies: 90% inhibitory concentration for bacterial growth. The protocol: as §1, §2
Assay [8] has as its system Staphylococcus aureus (ATCC29213). Nature of the assay: Microtitre plate assay, IC90 determination. The conditions noted are these: 90% inhibitory concentration for bacterial growth. In kind it is cell-based. The protocol: as §1, §2
For assay [9], the system named is Staphylococcus aureus (ATCC43300). Nature of the assay: Microtitre plate assay, IC90 determination. The following applies: 90% inhibitory concentration for bacterial growth. The class given is cell-based. The protocol: as §1, §2
Assay [10] concerns Streptococcus mutans (ATCC33402). The assay is described as follows: Microtitre plate assay, IC90 determination. The class given is cell-based. The following applies: 90% inhibitory concentration for bacterial growth. As for the experimental part: as §1, §2
Assay [11] relates to Streptococcus pneumoniae (ATCC6305). Nature of the assay: Microtitre plate assay, IC90 determination. The class given is cell-based. The conditions noted are these: 90% inhibitory concentration for bacterial growth. As for the experimental part: as §1, §2
Assay [12] deals with Streptococcus pyogens (ATCC8668). The assay is described as follows: Microtitre plate assay, IC90 determination. In kind it is cell-based. The following applies: 90% inhibitory concentration for bacterial growth. As for the experimental part: as §1, §2
Assay [13] relates to methicilline resistant Staphylococcus aureus (MRSA) (a clinical isolate from the University of Antwerp). The assay is described as follows: Microtitre plate assay, IC90 determination. The class given is cell-based. The following applies: 90% inhibitory concentration for bacterial growth. The protocol:
as §1, §2

The subject of the next assay is S. aureus. The assay is described as follows: Time kill assay. In kind it is cell-based, Staphylococcus aureus. The following applies: for bactericidal activity in time kill assay: observed at 1 and 10 times MIC90. An excerpt: (§3) Bactericidal or bacteriostatic activity of the compounds may be determined in a time kill assay using the broth microdilution method*. In a time kill assay on Staphylococcus aureus and methicillin resistant S. aureus (MRSA), the starting inoculum of S. aurues and MRSA is 10^6 CFU/ml in Muller Hinton broth. The antibacterial compounds are used at the concentration of 0.1 to 10 times the MIC (i.e. IC90 as determined in microtitre plate assay). Wells receiving no antibacterial agent constitute the culture growth control. The plates containing the microorganism and the test compounds are incubated at 37° C. After 0, 4, 24, and 48 hrs of incubation samples are removed for determination of viable counts by serial dilution (10^−1 to 10^−6) in sterile PBS and plating (200 μl) on Mueller Hinton agar. The plates are incubated at 37° C. for 24 hrs and the number of colonies are determined Killing curves can be constructed by plotting the log10 CFU per ml versus time. A bactericidal effect is commonly defined as 3-log10 decrease in number of CFU per ml as compared to untreated inoculum. The potential carryover effect of the drugs is removed by serial dilutions and counting the colonies at highest dilution used for plating. No carryover effect is observed at the dilution of 10^−2 used for plating. […] Antimicrob. Agents Chemother. 40, 839-845 (1996).
A time kill assay was performed with compound 102 and the control drug ciprofloxacin.

The next assay deals with MRSA. The assay is described as follows: Time kill assay. In kind it is cell-based, methicillin resistant S. aureus.
From the text: as §3, with “(1996). […]” for “(1996).”

The subject of assay [14] is Escherichia coli (ATCC35218). The assay is described as follows: Microtitre plate assay, IC90 determination. The class given is cell-based. The conditions noted are these: 90% inhibitory concentration for bacterial growth. As for the experimental part:
as §1, §2

As to `COc1nc2ccc(Br)cc2cc1C(c1ccccc1)C(O)(CC[N+](C)(C)C)c1cccc2ccccc12.[I-]` (single isomer, unassigned) [Compound 102], the “IC90 BSU 43639” value in assay [1] worked out at 2.8 µg/mL. Also, the “IC90 EFA 14506” value in [2] came to 2.8 µg/mL. In assay [3], the “IC90 EFA 29212” value was determined as 2.8 µg/mL. Besides, the “IC90 ECO 25922” value in assay [4] is 13.9 µg/mL. Moreover, the “IC90 LMO 49594” value in [5] is 2.2 µg/mL. In addition, in assay [6], the “IC90 PAE 27853” value worked out at 13.9 µg/mL. Moreover, the “IC90 STA 25923” value in assay [7] came to 2.2 µg/mL. Besides, the “IC90 STA 29213” value in [8] was determined as 2.8 µg/mL. For the same compound, the “IC90 STA 43300” value in [9] stood at 3.5 µg/mL. The “IC90 SMU 33402” value in [10] came out at 2.5 µg/mL. The “IC90 SPN 6305” value in assay [11] came to 3.1 µg/mL. Moreover, the “IC90 SPY 8668” value in [12] was 2.5 µg/mL. The “IC90 STA RMETH” value in assay [13] came to 2.8 µg/mL. Besides, in the assay with S. aureus (MIC i.e. IC90 as determined in microtitre plate assay), the “MIC (1× MIC used in time kill assay)” value worked out at 2.3 µg/mL. In addition, the “growth in time kill assay” value in the assay on S. aureus (at 0.1 times the MIC) is given as “followed the control in growth”. Besides, the “bactericidal activity in time kill assay” value with S. aureus was “bactericidal activity”.

Regarding `O=C(O)c1cn(C2CC2)c2cc(N3CCNCC3)c(F)cc2c1=O` [ciprofloxacin, reference compound], the “bactericidal activity in time kill assay” value is listed as “bactericidal activity” in the assay on S. aureus and “no bactericidal effect” with MRSA.

In the case of `COc1nc2ccc(Br)cc2cc1C(c1ccccc1)C(O)(CC[N+](C)(C)C)c1cccc2ccccc12.[I-]` (single isomer, unassigned) [Compound 103], in assay [1], the “IC90 BSU 43639” value was determined as 2.8 µg/mL. Further, in [2], the “IC90 EFA 14506” value is 2.8 µg/mL. Moreover, the “IC90 EFA 29212” value in assay [3] was 2.8 µg/mL. Moreover, the “IC90 ECO 25922” value in [4] turned out to be 11.1 µg/mL. In addition, in [14], the “IC90 ECO 35218” value was 17.5 µg/mL. The “IC90 LMO 49594” value in assay [5] is 0.5 µg/mL. The “IC90 PAE 27853” value in assay [6] was 13.9 µg/mL. For the same compound, the “IC90 STA 25923” value in assay [7] was 2.2 µg/mL. In assay [8], the “IC90 STA 29213” value was 2.0 µg/mL. The “IC90 STA 43300” value in assay [9] turned out to be 2.8 µg/mL. Besides, in [10], the “IC90 SMU 33402” value was 2.8 µg/mL. Further, the “IC90 SPN 6305” value in assay [11] is 3.5 µg/mL. Moreover, in assay [12], the “IC90 SPY 8668” value amounted to 2.8 µg/mL. For the same compound, the “IC90 STA RMETH” value in [13] was 2.2 µg/mL.
